From patent US10611750B2, “Tetrahydroquinoline compositions as bet bromodomain inhibitors” (FORMA Therapeutics, Inc., priority 2013, dated 2020)

Key:
[1] = molecular target: T1, BRD4 Bromodomain 1 (BRD4 BD1) (Homo sapiens, UniProt O60885); assay: AlphaScreen binding assay, BRD4 BD1; settings: His-tagged BRD4 BD1 50 nM, biotinylated H4 (1-21) K5/8/12/16 tetra-acetylated peptide 50 nM, compounds listed under IC50 range headings
T1 construct: 44-168 and BRD4 BD2
Experimental: The binding of Example compounds to BRD4 Bromodomain 1 and BRD4 Bromodomain 2 was assessed using 384-well AlphaScreen assay technology. His-epitope tagged BRD4 BD144-168 and BRD4 BD2333-460 were cloned, expressed, and purified to homogeneity. BRD4 BD1 and BRD4 BD2 binding and inhibition was assessed by monitoring the engagement of biotinylated Histone H4 (1-21) K5/8/12/16 tetra-acetylated peptide with the targets using the AlphaScreen technology (PerkinElmer). Specifically, in a 384-well black or white flat bottom plate, BRD4 BD1 (50 nM final) or BRD4 BD2 (100 nM final) was combined with peptide (50 nM final for BD1 or 100 nM final for BD2) in 50 mM HEPES (pH 7.3), 100 mM NaCl, 0.1% (w/v) BSA, and 0.01% (w/v) Triton X-100 either in the presence of DMSO (final 1.25% DMSO) or compound dilution series in DMSO. Alpha streptavidin donor beads and Nickel-chelate acceptor beads were added to a final concentration of 10 μg/ml each. After a minimum of 1 hour equilibration, plates were read on a BMG PHERAstar FS multi-label reader (BMG LabTech). The half maximal inhibitory concentration (IC50) values were calculated using IDBS Activity Base software with a four parameter logistic curve fit by the equation y=A+((B−A)/(1+((C/x)^D))), wherein A denotes the bottom plateau of the curve, B denotes the top plateau of the curve, C denotes the x value at the middle of the curve, D denotes the slope factor, x denotes the original known x values, and y denotes the original known y values. Data was fitted using the Levenburg Marquardt algorithm.

[2] = system: acute myelocytic leukemia (AML) cell line MV4-11; assay: Oncology cell growth assay (3-day proliferation, CellTiter-Glo); format: cell-based; settings: Homo sapiens, MV4-11, 72 h, MV4-11 cells, 3000 cells/well, compounds listed under IC50 range headings, read-out: MV411 IC50 (gIC50, inhibition of proliferation)
Experimental: The impact of Example compounds on cancer cell proliferation was determined using the acute myelocytic leukemia (AML) cell line MV4-11 (ATCC) in a 3-day proliferation assay. MV4-11 cells were maintained in RPMI 1640 media supplemented with 10% FBS at 37° C. and an atmosphere of 5% CO2. For compound testing, compound dilutions series were prepared in DMSO via a 3-fold serial dilution from 2 mM to 0.001 mM in 384-well white flat bottom plates. The final compound concentrations in the wells were 10, 3.3, 1.1, 0.37, 0.12, 0.041, 0.013 and 0.0045 μM. MV4-11 cells were plated at a density of 3000 cells/well in final volume of 50 μl culture media and incubated for 72 hours. […] Luminescent signal from the CellTiter-Glo assay was read on an EnVision multilabel plate reader (PerkinElmer). Values for the concentration that inhibited cell growth by 50% (gIC50) between the DMSO control and background control (no cells) were determined using IDBS Activity Base software with a four parameter logistic curve fit by the equation y=A+((B−A)/(1+((C/x)^D))), wherein A denotes the bottom plateau of the curve, B denotes the top plateau of the curve, C denotes the x value at the middle of the curve, D denotes the slope factor, x denotes the original known x values, and y denotes the original known y values. Data was fitted using the Levenburg Marquardt algorithm.

Row | IC50 [1] [nM] | IC50 [2] [nM] | Compound
1 | 100 to 1000 | < 500 | Cc1cc(Oc2c(-c3cnn(C4CCNCC4)c3)ccc3c2CC[C@H](C)N3C(=O)C2CC2)cc(C)n1 [I-330, (S)-cyclopropyl(5-(2,6-dimethylpyridin-4-yloxy)-2-methyl-6-(1-(piperidin-4-yl)-1H-pyrazol-4-yl)-3,4-dihydroquinolin-1(2H)-yl)methanone]
2 | 100 to 1000 | < 500 | C[C@H]1CCc2c(ccc(-c3cnn(C4CCNCC4)c3)c2Oc2cccc(Cl)c2)N1C(=O)C1CC1 [I-179, (S)-(5-(3-chlorophenoxy)-2-methyl-6-(1-(piperidin-4-yl)-1H-pyrazol-4-yl)-3,4-dihydroquinolin-1 (2H)-yl)(cyclopropyl)methanone]
3 | 100 to 1000 | < 500 | COC(=O)N1c2ccc(-c3cnn(C4CCNCC4)c3)c(Oc3cccc(F)c3F)c2CC[C@@H]1C [I-269, (S)-methyl 5-(2,3-difluorophenoxy)-2-methyl-6-(1-(piperidin-4-yl)-1H-pyrazol-4-yl)-3,4-dihydroquinoline-1(2H)-carboxylate]
4 | 1000 to 10000 | < 500 | C[C@H]1CCc2c(ccc(-c3cn(C)nn3)c2Oc2ccc(F)c(F)c2)N1C(=O)C1CC1 [I-319, (S)-cyclopropyl(5-(3,4-difluorophenoxy)-2-methyl-6-(1-methyl-1H-1,2,3-triazol-4-yl)-3,4-dihydroquinolin-1(2H)-yl)methanone]
5 | 100 to 1000 | < 500 | C[C@H]1CCc2c(ccc(-c3cn(C)nn3)c2Oc2ccccc2F)N1C(=O)C1CC1 [I-320, (S)-cyclopropyl(5-(2-fluorophenoxy)-2-methyl-6-(1-methyl-1H-1,2,3-triazol-4-yl)-3,4-dihydroquinolin-1(2H)-yl)methanone]
6 | 100 to 1000 | < 500 | C[C@H]1CCc2c(ccc(-c3ccn(C4CCNCC4)n3)c2Oc2ccccc2)N1C(=O)C1CC1 [I-307, (S)-cyclopropyl(2-methyl-5-phenoxy-6-(1-(piperidin-4-yl)-1H-pyrazol-3-yl)-3,4-dihydroquinolin-1(2H)-yl)methanone]
7 | 100 to 1000 | < 500 | C[C@H]1CCc2c(ccc(-c3cnn(C4CCNCC4)c3)c2Oc2ccccc2Cl)N1C(=O)C1CC1 [I-165, (S)-(5-(2-chlorophenoxy)-2-methyl-6-(1-(piperidin-4-yl)-1H-pyrazol-4-yl)-3,4-dihydroquinolin-1(2H)-yl)(cyclopropyl)methanone]
8 | 100 to 1000 | < 500 | C[C@H]1CCc2c(Oc3ccccc3)c(-c3cnn(C4CCNCC4)c3)cc(F)c2N1C(=O)C1CC1 [I-204, (S)-cyclopropyl(8-fluoro-2-methyl-5-phenoxy-6-(1-(piperidin-4-yl)-1H-pyrazol-4-yl)-3,4-dihydroquinolin-1 (2H)-yl)methanone]
9 | 100 to 1000 | < 500 | C[C@H]1CCc2c(ccc(-c3cnn(C4CS(=O)(=O)C4)c3)c2Oc2ccc(F)cc2)N1C(=O)C1CC1 [I-229, 3-[4-[(2S)-1-cyclopropanecarbonyl-5-(4-fluorophenoxy)-2-methyl-1,2,3,4-tetrahydroquinolin-6-yl]-1H-pyrazol-1-yl]-1λ^6-thietane-1,1-dione]
10 | 100 to 1000 | < 500 | CC(=O)N1c2c(F)cc(-c3cnn(C4CCNCC4)c3)c(Oc3ccccc3)c2CC[C@@H]1C [I-206, (S)-1-(8-fluoro-2-methyl-5-phenoxy-6-(1-(piperidin-4-yl)-1H-pyrazol-4-yl)-3,4-dihydroquinolin-1 (2H)-yl)ethanone]
11 | 100 to 1000 | < 500 | CC(=O)N1c2ccc(-c3cnn(C4CCNCC4)c3)c(Oc3ccc(F)c(F)c3)c2CC[C@@H]1C [I-275, (S)-1-(5-(3,4-difluorophenoxy)-2-methyl-6-(1-(piperidin-4-yl)-1H-pyrazol-4-yl)-3,4-dihydroquinolin-1 (2H)-yl)ethanone]
12 | 100 to 1000 | < 500 | C[C@H]1CCc2c(ccc(-c3ncc(C4CCNCC4)[nH]3)c2Oc2ccccc2)N1C(=O)C1CC1 [I-329, (S)-cyclopropyl(2-methyl-5-phenoxy-6-(5-(piperidin-4-yl)-1H-imidazol-2-yl)-3,4-dihydroquinolin-1(2H)-yl)methanone]
13 | 100 to 1000 | < 500 | C[C@H]1CCc2c(ccc(-c3nnc(N)s3)c2Oc2ccccc2)N1C(=O)C1CC1 [I-184, (S)-(6-(5-amino-1,3,4-thiadiazol-2-yl)-2-methyl-5-phenoxy-3,4-dihydroquinolin-1(2H)-yl)(cyclopropyl)methanone]

More lines, now with the values behind:

Row | Compound | IC50 [1] [nM] | IC50 [2] [nM]
14 | COC(=O)N1c2ccc(-c3cnn(C4CCS(=O)(=O)CC4)c3)c(OC3CCC3)c2CC[C@@H]1C [I-341, methyl (2S)-5-cyclobutoxy-6-[1-(1,1-dioxo-1λ^6-thian-4-yl)-1H-pyrazol-4-yl]-2-methyl-1,2,3,4-tetrahydroquinoline-1-carboxylate] | 100 to 1000 | 500 to 1000
15 | C[C@H]1CCc2c(ccc(-n3nccn3)c2Oc2ccccc2)N1C(=O)C1CC1 [I-327, (S)-cyclopropyl(2-methyl-5-phenoxy-6-(2H-1,2,3-triazol-2-yl)-3,4-dihydroquinolin-1(2H)-yl)methanone] | ≥ 10000 | > 1000
16 | COC(=O)N1c2ccc(-c3csc(C4(O)CNC4)n3)c(OC3CCC3)c2CC[C@@H]1C [I-314, (S)-methyl-5-cyclobutoxy-6-(2-(3-hydroxyazetidin-3-yl)thiazol-4-yl)-2-methyl-3,4-dihydroquinoline-1(2H)-carboxylate] | 1000 to 10000 | > 1000
17 | C[C@H]1CCc2c(ccc(-c3cn(C)nn3)c2Oc2ccccc2C#N)N1C(=O)C1CC1 [I-154, (S)-2-(1-(cyclopropanecarbonyl)-2-methyl-6-(1-methyl-1H-1,2,3-triazol-4-yl)-1,2,3,4-tetrahydroquinolin-5-yloxy)benzonitrile] | 1000 to 10000 | < 500
18 | CC(=O)Nc1c(-c2ccc3c(c2OC2CCC2)CC[C@H](C)N3C(=O)C2CC2)cnn1C1CC1 [I-301, N-(4-((2S)-5-cyclobutoxy-1-(cyclopropanecarbonyl)-2-methyl-1,2,3,4-tetrahydroquinolin-6-yl)-1-cyclopropyl-1H-pyrazol-5-yl)acetamide] | 1000 to 10000 | > 1000
19 | COC(=O)N1c2ccc(-c3cnn(C4CC5CN(C)CC5C4)c3)c(OC3CCC3)c2CC[C@@H]1C (stereo partly drawn) [I-248, (2S)-methyl 5-cyclobutoxy-2-methyl-6-(1-(2-methyl-octahydrocyclopenta[c]pyrrol-5-yl)-1H-pyrazol-4-yl)-3,4-dihydroquinoline-1(2H)-carboxylate] | 100 to 1000 | < 500
20 | CC(=O)N1c2c(F)cc(-c3cnn(C4CCNCC4)c3)c(OC3CCC3)c2CC[C@@H]1C [I-105, (S)-1-(5-cyclobutoxy-8-fluoro-2-methyl-6-(1-(piperidin-4-yl)-1H-pyrazol-4-yl)-3,4-dihydroquinolin-1(2H)-yl)ethanone] | 100 to 1000 | < 500
21 | C[C@H]1CCc2c(OC3CCC3)c(-c3cn[nH]c3)cc(F)c2N1C(=O)C1CC1 [I-70, (S)-(5-cyclobutoxy-8-fluoro-2-methyl-6-(1H-pyrazol-4-yl)-3,4-dihydroquinolin-1(2H)-yl)(cyclopropyl)methanone] | 1000 to 10000 | 500 to 1000
22 | CC(=O)N1c2c(F)cc(-c3cnn(C4CC4)c3)c(OC3CCC3)c2CC[C@@H]1C [I-73, (S)-1-(5-cyclobutoxy-6-(1-cyclopropyl-1H-pyrazol-4-yl)-8-fluoro-2-methyl-3,4-dihydroquinolin-1(2H)-yl)ethanone] | 100 to 1000 | 500 to 1000
23 | C[C@H]1CCc2c(ccc(-c3ncc(C4CCNCC4)[nH]3)c2OC2CCC2)N1C(=O)C1CC1 [I-328, (S)-(5-cyclobutoxy-2-methyl-6-(5-(piperidin-4-yl)-1H-imidazol-2-yl)-3,4-dihydroquinolin-1(2H)-yl)(cyclopropyl)methanone] | 1000 to 10000 | < 500
